Several values for one entry are separate records, joined by “and”; a condition that tells them apart may be missing. Equal values may be shown once.
Key:
[1] = system: U251; assay: Inhibition of tumor cell growth; type: cell-based; conditions: U-251; U251, human glioblastoma; 48 hour treatment; means ± SD, n=3
Description: (§1) The proliferative inhibitory ability of YLT192 on tumor cells was investigated. […] Inhibition of cell proliferation is a possible approach for cancer treatment. EdU incorporation assay was performed to investigate the anti-proliferative effects of YLT192 against U251 and HCT116 cells. […]
(§2) treatment with YLT192. Data are means ± SD, n=3. cell line cell type IC50(μM)
(§3) HCT116 human colorectal carcinoma 7.4 ±0.5
(§4) A431 human pidermoid carcinoma 7.7 ±0.9
(§5) BxPC-3 human pancreatic cancer 8.2 ±0.6
(§6) Hep G2 human hepatocellular carcinoma 7.9 ±0.5
(§7) SW620 human colorectal carcinoma 7.9 ±1.7
(§8) SKOV-3 human ovarian carcinoma 8.2 ±1.5
(§9) LS147T human colorectal carcinoma 9.0 ±1.1
(§10) PANC-1 human pancreatic cancer 9.8 ±1.9
(§11) BEL7402 human hepatocellular carcinoma 11.3 ±1.1
(§12) MDA-MB-231 human mammary carcinoma 11.9 ±2.1
(§13) SMMC-7721 human hepatocellular carcinoma 12.1 ±1.6
(§14) SPC-A1 human lung cancer 16.4 ±1.4
(§15) MCF-7 human mammary carcinoma 16.8 ±1.7
(§16) Hela human epithelial carcinoma 18.9 ±2.4
(§17) MV4-11 human acute myeloid leukemia 21.9 ±1.9
(§18) COLO-205 human colorectal carcinoma 23.0 ±1.5

[2] = system: DU145; assay: Inhibition of tumor cell growth; type: cell-based; conditions: DU-145; DU145, human prostate cancer; 48 hour treatment; means ± SD, n=3
Description: as §1, §2, §3, §4, §5, §6, §7, §8, §9, §10, §11, §12, §13, §14, §15, §16, §17, §18

[3] = system: NIH-H1975; assay: Inhibition of tumor cell growth; type: cell-based; conditions: NIH-H1975, human lung cancer; 48 hour treatment; means ± SD, n=3
Description: as §1, §2, §3, §4, §5, §6, §7, §8, §9, §10, §11, §12, §13, §14, §15, §16, §17, §18

[4] = system: B16; assay: Inhibition of tumor cell growth; type: cell-based; conditions: B16, mouse melanoma; 48 hour treatment; means ± SD, n=3
Description: as §1, §2, §3, §4, §5, §6, §7, §8, §9, §10, §11, §12, §13, §14, §15, §16, §17, §18

[5] = system: A375; assay: Inhibition of tumor cell growth; type: cell-based; conditions: A-375; A375, human melanoma; 48 hour treatment; means ± SD, n=3
Description: as §1, §2, §3, §4, §5, §6, §7, §8, §9, §10, §11, §12, §13, §14, §15, §16, §17, §18

[6] = target: T1, Aurora-B (Homo sapiens, UniProt Q96GD4); assay: Radiometric kinase assay (Millipore Kinase Profile Service); type: biochemical; conditions: means ± SD, two independent experiments, read-out: inhibition rate at 1 μM (%)
T1 construct: purchased Millipore (Kinase Profile Service, UK)
Description: (§19) YLT192 was designed and synthesized in the State Key Laboratory of Biotherapy, Sichuan University (Sichuan, China). Its structural formula and synthesis route was shown in Fig. 1A and Supplementary Figure S1, respectively. The kinase inhibitory activity of YLT192 was measured by the use of radiometric assays provided by Kinase Profile Service (Millipore, UK). The effects of YLT192 on kinase activity were detected using the scintillation proximity assay method at an enzymatic level. […] In addition, the inhibitory activity of YLT192 was examined against platelet-derived growth factor receptor (PDGFR)-related kinases because of their structural similarity to the VEGFR2. […] Moreover, excellent selectivity for VEGFR2 was evident compared with a range of unrelated tyrosine and serine/threonine kinases, including fibroblast growth factor receptor 3, polo-like kinase 1, aurora-A, Axl, MET, protein kinase A, c-RAF etc.

[7] = target: T2, Fms (Homo sapiens, UniProt P07333); assay: as above; type: biochemical; conditions: means ± SD, two independent experiments, read-out: inhibition rate at 1 μM (%)
T2 construct: purchased Millipore (Kinase Profile Service, UK)
Description: as §19

[8] = target: T3, FGFR3 (Homo sapiens, UniProt P22607); assay: as above; type: biochemical; conditions: means ± SD, two independent experiments, read-out: inhibition rate at 1 μM (%)
T3 construct: purchased Millipore (Kinase Profile Service, UK)
Description: as §19

[9] = target: T4, mTOR (Homo sapiens, UniProt P42345); assay: as above; type: biochemical; conditions: means ± SD, two independent experiments, read-out: inhibition rate at 1 μM (%)
T4 construct: purchased Millipore (Kinase Profile Service, UK)
Description: as §19

[10] = target: T5, CDK2/cyclinE (Homo sapiens, UniProt P24941); assay: as above; type: biochemical; conditions: means ± SD, two independent experiments, read-out: inhibition rate at 1 μM (%)
T5 construct: purchased Millipore (Kinase Profile Service, UK)
Description: as §19

[11] = target: T6, c-RAF (Homo sapiens, UniProt P04049, Y340D/Y341D); assay: as above; type: biochemical; conditions: means ± SD, two independent experiments, read-out: inhibition rate at 1 μM (%)
T6 construct: purchased Millipore (Kinase Profile Service, UK)
Description: as §19

[12] = target: T7, FGFR2 (Homo sapiens, UniProt P21802); assay: as above; type: biochemical; conditions: means ± SD, two independent experiments, read-out: inhibition rate at 1 μM (%)
T7 construct: purchased Millipore (Kinase Profile Service, UK)
Description: as §19

[13] = target: T8, Met (Homo sapiens, UniProt P08581); assay: as above; type: biochemical; conditions: means ± SD, two independent experiments, read-out: inhibition rate at 1 μM (%)
T8 construct: purchased Millipore (Kinase Profile Service, UK)
Description: as §19

[14] = target: T9, GSK3β (Homo sapiens, UniProt P49841); assay: as above; type: biochemical; conditions: means ± SD, two independent experiments, read-out: inhibition rate at 1 μM (%)
T9 construct: purchased Millipore (Kinase Profile Service, UK)
Description: as §19

[15] = target: T10, PDGFRβ (Homo sapiens, UniProt P09619); assay: as above; type: biochemical; conditions: means ± SD, two independent experiments, read-out: inhibition rate at 1 μM (%)
T10 construct: purchased Millipore (Kinase Profile Service, UK)
Description: as §19

[16] = target: T11, Flt3 (Homo sapiens, UniProt P36888); assay: as above; type: biochemical; conditions: means ± SD, two independent experiments
T11 construct: purchased Millipore (Kinase Profile Service, UK)
T11 sequence (P36888 27-993): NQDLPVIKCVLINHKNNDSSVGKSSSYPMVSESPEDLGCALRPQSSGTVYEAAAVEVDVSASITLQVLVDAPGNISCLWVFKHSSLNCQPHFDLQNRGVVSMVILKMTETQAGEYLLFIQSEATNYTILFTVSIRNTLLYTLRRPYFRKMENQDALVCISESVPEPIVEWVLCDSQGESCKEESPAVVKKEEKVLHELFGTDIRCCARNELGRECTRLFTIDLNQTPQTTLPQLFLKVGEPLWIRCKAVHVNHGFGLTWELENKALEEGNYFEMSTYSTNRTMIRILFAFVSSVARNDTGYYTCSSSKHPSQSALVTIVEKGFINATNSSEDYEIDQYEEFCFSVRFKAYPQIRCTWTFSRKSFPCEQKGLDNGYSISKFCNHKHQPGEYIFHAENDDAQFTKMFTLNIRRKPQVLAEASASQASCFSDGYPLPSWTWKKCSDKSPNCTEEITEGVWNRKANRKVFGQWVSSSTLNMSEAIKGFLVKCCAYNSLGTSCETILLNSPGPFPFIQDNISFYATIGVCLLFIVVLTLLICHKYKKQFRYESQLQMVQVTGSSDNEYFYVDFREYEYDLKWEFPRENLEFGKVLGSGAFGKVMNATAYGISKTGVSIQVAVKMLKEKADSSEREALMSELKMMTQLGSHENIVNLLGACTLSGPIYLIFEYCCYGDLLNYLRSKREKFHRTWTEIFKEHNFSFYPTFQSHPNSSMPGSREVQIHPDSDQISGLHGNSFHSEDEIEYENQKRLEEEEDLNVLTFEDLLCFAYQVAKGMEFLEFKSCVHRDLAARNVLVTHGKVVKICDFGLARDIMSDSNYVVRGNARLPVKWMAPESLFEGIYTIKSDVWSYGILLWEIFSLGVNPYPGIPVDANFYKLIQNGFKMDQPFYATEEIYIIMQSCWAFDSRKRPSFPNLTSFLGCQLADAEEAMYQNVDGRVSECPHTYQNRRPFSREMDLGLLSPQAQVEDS
Description: as §19

[17] = target: T12, JNK3 (Homo sapiens, UniProt P53779); assay: as above; type: biochemical; conditions: means ± SD, two independent experiments, read-out: inhibition rate at 1 μM (%)
T12 construct: purchased Millipore (Kinase Profile Service, UK)
Description: as §19

[18] = target: T13, Ret (Homo sapiens, UniProt P07949); assay: as above; type: biochemical; conditions: means ± SD, two independent experiments, read-out: inhibition rate at 1 μM (%)
T13 construct: purchased Millipore (Kinase Profile Service, UK)
T13 sequence (P07949 29-1114): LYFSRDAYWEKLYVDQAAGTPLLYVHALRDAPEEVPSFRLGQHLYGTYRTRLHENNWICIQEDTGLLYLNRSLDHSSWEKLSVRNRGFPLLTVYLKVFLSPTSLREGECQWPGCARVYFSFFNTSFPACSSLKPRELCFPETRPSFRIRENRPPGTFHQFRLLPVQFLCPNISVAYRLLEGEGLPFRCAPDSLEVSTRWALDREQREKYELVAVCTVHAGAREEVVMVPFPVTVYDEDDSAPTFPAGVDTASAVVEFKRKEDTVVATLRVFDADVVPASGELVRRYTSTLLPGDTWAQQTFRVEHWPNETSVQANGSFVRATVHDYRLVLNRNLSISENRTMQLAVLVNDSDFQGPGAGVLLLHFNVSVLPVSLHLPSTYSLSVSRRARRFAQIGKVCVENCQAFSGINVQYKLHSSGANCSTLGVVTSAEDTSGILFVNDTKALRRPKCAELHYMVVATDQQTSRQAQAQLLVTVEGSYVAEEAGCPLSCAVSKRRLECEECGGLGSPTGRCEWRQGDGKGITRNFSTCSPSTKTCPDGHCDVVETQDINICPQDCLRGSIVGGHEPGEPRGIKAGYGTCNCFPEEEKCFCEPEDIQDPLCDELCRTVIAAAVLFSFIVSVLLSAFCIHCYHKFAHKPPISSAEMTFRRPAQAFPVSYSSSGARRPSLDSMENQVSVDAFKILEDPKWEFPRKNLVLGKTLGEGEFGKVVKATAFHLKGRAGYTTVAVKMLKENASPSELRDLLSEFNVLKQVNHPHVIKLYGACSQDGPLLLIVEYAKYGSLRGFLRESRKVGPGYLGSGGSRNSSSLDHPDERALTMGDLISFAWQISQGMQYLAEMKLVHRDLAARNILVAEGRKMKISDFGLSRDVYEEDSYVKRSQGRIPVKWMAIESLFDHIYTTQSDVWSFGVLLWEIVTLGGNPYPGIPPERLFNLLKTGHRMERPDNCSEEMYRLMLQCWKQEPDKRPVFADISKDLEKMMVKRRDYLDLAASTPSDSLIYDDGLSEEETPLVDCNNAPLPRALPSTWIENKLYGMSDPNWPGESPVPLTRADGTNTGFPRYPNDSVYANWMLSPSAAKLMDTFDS
Description: as §19

[19] = target: T14, ALK (Homo sapiens, UniProt Q9UM73); assay: as above; type: biochemical; conditions: means ± SD, two independent experiments, read-out: inhibition rate at 1 μM (%)
T14 construct: purchased Millipore (Kinase Profile Service, UK)
Description: as §19

[20] = target: T15, CDK6/cyclinD3 (Homo sapiens, UniProt Q00534); assay: as above; type: biochemical; conditions: means ± SD, two independent experiments, read-out: inhibition rate at 1 μM (%)
T15 construct: purchased Millipore (Kinase Profile Service, UK)
Description: as §19

[21] = target: T16, Axl (Homo sapiens, UniProt P30530); assay: as above; type: biochemical; conditions: means ± SD, two independent experiments, read-out: inhibition rate at 1 μM (%)
T16 construct: purchased Millipore (Kinase Profile Service, UK)
Description: as §19

[22] = target: T17, FGFR1 (Homo sapiens, UniProt P11362); assay: as above; type: biochemical; conditions: means ± SD, two independent experiments, read-out: inhibition rate at 1 μM (%)
T17 construct: purchased Millipore (Kinase Profile Service, UK)
Description: as §19

[23] = target: T18, EGFR (Homo sapiens, UniProt P00533); assay: as above; type: biochemical; conditions: means ± SD, two independent experiments, read-out: inhibition rate at 1 μM (%)
T18 construct: purchased Millipore (Kinase Profile Service, UK)
T18 sequence (P00533 25-1210): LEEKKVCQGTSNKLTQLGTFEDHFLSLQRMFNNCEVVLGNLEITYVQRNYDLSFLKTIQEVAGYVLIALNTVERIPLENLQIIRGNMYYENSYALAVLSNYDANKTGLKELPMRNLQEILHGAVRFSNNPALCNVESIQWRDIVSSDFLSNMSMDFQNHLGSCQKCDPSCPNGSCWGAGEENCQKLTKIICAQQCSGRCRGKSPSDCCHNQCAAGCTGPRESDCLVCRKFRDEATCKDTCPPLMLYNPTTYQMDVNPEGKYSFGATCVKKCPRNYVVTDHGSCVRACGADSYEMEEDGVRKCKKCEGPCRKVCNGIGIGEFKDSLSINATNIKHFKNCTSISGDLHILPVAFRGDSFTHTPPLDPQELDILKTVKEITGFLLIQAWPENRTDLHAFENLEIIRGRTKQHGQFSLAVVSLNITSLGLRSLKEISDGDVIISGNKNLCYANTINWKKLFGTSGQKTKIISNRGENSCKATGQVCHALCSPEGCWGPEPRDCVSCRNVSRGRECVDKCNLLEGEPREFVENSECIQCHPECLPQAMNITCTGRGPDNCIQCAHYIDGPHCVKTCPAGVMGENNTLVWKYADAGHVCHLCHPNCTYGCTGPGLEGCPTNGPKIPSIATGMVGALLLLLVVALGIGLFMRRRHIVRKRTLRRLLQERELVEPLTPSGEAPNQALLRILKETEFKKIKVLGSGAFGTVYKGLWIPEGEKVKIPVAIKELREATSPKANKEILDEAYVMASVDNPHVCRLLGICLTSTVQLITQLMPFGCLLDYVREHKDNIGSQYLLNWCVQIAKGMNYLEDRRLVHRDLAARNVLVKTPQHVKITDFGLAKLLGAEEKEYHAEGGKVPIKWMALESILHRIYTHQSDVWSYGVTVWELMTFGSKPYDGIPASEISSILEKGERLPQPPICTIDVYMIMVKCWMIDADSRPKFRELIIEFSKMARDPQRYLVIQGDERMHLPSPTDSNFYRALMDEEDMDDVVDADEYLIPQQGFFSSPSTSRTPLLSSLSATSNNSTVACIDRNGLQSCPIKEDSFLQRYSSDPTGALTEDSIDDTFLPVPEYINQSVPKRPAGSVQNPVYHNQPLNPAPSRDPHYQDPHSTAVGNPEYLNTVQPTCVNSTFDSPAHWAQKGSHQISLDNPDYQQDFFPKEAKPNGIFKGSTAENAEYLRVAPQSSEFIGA
Description: as §19

[24] = target: T19, LCK (Homo sapiens, UniProt P06239); assay: as above; type: biochemical; conditions: means ± SD, two independent experiments, read-out: inhibition rate at 1 μM (%)
T19 construct: purchased Millipore (Kinase Profile Service, UK)
Description: as §19

[25] = target: T20, cKit (Homo sapiens, UniProt P10721); assay: as above; type: biochemical; conditions: means ± SD, two independent experiments, read-out: inhibition rate at 1 μM (%)
T20 construct: purchased Millipore (Kinase Profile Service, UK)
T20 sequence (P10721 26-976): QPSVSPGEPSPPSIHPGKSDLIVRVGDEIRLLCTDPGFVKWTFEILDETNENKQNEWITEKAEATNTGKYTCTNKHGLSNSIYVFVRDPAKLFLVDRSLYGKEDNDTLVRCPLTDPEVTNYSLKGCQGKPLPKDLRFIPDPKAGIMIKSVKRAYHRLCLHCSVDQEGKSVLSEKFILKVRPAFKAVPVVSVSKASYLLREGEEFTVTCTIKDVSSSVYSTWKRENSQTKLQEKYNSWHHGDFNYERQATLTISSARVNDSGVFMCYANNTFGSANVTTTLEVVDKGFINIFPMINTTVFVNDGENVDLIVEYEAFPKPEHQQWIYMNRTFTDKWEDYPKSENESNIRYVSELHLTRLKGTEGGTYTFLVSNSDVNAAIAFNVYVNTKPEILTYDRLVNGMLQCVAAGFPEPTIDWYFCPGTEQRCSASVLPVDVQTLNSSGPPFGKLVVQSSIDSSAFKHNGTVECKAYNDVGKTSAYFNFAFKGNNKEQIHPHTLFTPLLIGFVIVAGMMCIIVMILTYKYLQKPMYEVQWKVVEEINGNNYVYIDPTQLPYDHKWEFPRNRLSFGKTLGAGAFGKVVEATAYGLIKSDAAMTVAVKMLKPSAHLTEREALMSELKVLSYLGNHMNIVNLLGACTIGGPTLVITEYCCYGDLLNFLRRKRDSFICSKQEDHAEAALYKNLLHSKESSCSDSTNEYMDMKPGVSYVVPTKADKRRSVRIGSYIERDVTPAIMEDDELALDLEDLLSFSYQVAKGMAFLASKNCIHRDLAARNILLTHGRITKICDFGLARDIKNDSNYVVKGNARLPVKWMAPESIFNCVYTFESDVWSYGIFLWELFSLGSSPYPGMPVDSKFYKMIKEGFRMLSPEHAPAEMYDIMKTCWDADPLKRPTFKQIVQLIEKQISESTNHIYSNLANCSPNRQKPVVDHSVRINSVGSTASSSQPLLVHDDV
Description: as §19

[26] = target: T21, PDGFRα (Homo sapiens, UniProt P16234); assay: as above; type: biochemical; conditions: means ± SD, two independent experiments, read-out: inhibition rate at 1 μM (%)
T21 construct: purchased Millipore (Kinase Profile Service, UK)
Description: as §19

[27] = target: T22, PKA (Homo sapiens, UniProt P17612); assay: as above; type: biochemical; conditions: means ± SD, two independent experiments, read-out: inhibition rate at 1 μM (%)
T22 construct: purchased Millipore (Kinase Profile Service, UK)
Description: as §19

[28] = target: T23, Plk1 (Homo sapiens, UniProt P53350); assay: as above; type: biochemical; conditions: means ± SD, two independent experiments, read-out: inhibition rate at 1 μM (%)
T23 construct: purchased Millipore (Kinase Profile Service, UK)
Description: as §19

[29] = target: T24, IKKβ (Homo sapiens, UniProt O14920); assay: as above; type: biochemical; conditions: means ± SD, two independent experiments, read-out: inhibition rate at 1 μM (%)
T24 construct: purchased Millipore (Kinase Profile Service, UK)
T24 sequence (O14920 whole entry): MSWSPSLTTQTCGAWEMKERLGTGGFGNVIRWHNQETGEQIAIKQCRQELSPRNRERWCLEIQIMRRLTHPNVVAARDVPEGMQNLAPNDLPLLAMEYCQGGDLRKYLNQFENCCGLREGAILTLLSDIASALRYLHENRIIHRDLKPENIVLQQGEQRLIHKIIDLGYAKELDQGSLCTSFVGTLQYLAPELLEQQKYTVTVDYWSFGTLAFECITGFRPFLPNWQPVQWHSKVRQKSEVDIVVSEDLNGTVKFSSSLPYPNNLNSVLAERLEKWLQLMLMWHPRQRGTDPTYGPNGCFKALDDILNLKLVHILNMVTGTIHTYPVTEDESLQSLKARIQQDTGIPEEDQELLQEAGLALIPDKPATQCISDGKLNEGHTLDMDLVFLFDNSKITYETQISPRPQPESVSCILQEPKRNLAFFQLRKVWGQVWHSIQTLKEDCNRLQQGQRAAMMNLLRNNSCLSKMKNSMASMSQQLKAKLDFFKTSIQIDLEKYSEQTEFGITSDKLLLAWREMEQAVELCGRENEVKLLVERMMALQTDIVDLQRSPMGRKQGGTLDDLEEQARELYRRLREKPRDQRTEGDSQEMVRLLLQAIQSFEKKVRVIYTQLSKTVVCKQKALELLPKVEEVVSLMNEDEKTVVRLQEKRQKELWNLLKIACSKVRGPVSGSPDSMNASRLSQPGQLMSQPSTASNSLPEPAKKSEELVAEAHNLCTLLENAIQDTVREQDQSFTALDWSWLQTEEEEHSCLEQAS
Description: as §19

[30] = target: T25, JAK3 (Homo sapiens, UniProt P52333); assay: as above; type: biochemical; conditions: means ± SD, two independent experiments, read-out: inhibition rate at 1 μM (%)
T25 construct: purchased Millipore (Kinase Profile Service, UK)
Description: as §19

[31] = target: T26, Aurora-A (Homo sapiens, UniProt O14965); assay: as above; type: biochemical; conditions: means ± SD, two independent experiments, read-out: inhibition rate at 1 μM (%)
T26 construct: purchased Millipore (Kinase Profile Service, UK)
Description: as §19

CNC(=O)c1cc(Oc2ccc(NC(=O)c3cccc(OC)c3)cc2)ccn1 [YLT192]
IC50 [1]: 6.5 ± 0.8 µM
IC50 [2]: 22.8 ± 2.6 µM
IC50 [3]: 27.3 ± 1.2 µM
IC50 [4]: 21.2 ± 2.1 µM
IC50 [5]: 12.4 ± 1.1 µM
inhibition at 1 µM [6]: 23 ± 5%
inhibition at 1 µM [7]: 35 ± 11%
inhibition at 1 µM [8]: 4 ± 6%
inhibition at 1 µM [9]: 0%
inhibition at 1 µM [10]: -9 ± 3%
inhibition at 1 µM [11]: 3 ± 3%
inhibition at 1 µM [12]: 19 ± 4%
inhibition at 1 µM [13]: -2 ± 6%
inhibition at 1 µM [14]: 4 ± 6%
inhibition at 1 µM [15]: 7 ± 8%
inhibition rate at 1 μM (%) [16]: 0% and −6 ± 2%
inhibition at 1 µM [17]: 3 ± 5%
inhibition at 1 µM [18]: 23 ± 3%
inhibition at 1 µM [19]: -4 ± 3%
inhibition at 1 µM [20]: 0%
inhibition at 1 µM [21]: -7 ± 7%
inhibition at 1 µM [22]: 21 ± 3%
inhibition at 1 µM [23]: 1 ± 6%
inhibition at 1 µM [24]: 3 ± 6%
inhibition at 1 µM [25]: 6 ± 3%
inhibition at 1 µM [26]: 5 ± 3%
inhibition at 1 µM [27]: -10 ± 4%
inhibition at 1 µM [28]: 1 ± 3%
inhibition at 1 µM [29]: 2 ± 6%
inhibition at 1 µM [30]: -7 ± 4%
inhibition at 1 µM [31]: -1 ± 4%
